From the supplement of paper PMC12463676, “Small-molecule dissolution of stress granules by redox modulation benefits ALS models” (Nature Chemical Biology, 2025)

Key:
lipoamide = compound: NC(=O)CCCCC1CCSS1 [lipoamide]; experiment: thermal stability z-score vs DMSO; higher = more thermally stabilized by treatment; details: HeLa, lipoamide concentration 100 µM
Protocol: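 Cellular thermal proteome profiling in HeLa cells. Cells were treated with 100 µM lipoamide for 1 h, with or without 1 mM arsenate for a further 1 h, then heated to ten temperatures (37-66.3 °C), and soluble protein was quantified by TMT mass spectrometry relative to 0.1% DMSO controls. The thermal stability score (sum of log2 fold changes minus the abundance score) was transformed to a z-score; mean of n = 3 experiments.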

potassium arsenate = compound: O=[As]([O-])(O)O.[K+] [potassium arsenate]; experiment: as above; details: HeLa; arsenate concentration 1 mM
Protocol: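 Cellular thermal proteome profiling in HeLa cells treated with 1 mM arsenate for 1 h (DMSO pretreatment), heated to ten temperatures (37-66.3 °C). Soluble protein was quantified by TMT mass spectrometry relative to DMSO controls; the thermal stability score was transformed to a z-score; mean of n = 3 experiments.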

[1] = arsenate co-treatment: 1 mM arsenate 1 h
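Note: each temperature applied for 3 min, abundance score taken as mean log2 fold change at the two lowest temperatures, z-score obtained by mean subtraction and division by SD.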

Chain of UniProt P52735 (P52735 whole entry): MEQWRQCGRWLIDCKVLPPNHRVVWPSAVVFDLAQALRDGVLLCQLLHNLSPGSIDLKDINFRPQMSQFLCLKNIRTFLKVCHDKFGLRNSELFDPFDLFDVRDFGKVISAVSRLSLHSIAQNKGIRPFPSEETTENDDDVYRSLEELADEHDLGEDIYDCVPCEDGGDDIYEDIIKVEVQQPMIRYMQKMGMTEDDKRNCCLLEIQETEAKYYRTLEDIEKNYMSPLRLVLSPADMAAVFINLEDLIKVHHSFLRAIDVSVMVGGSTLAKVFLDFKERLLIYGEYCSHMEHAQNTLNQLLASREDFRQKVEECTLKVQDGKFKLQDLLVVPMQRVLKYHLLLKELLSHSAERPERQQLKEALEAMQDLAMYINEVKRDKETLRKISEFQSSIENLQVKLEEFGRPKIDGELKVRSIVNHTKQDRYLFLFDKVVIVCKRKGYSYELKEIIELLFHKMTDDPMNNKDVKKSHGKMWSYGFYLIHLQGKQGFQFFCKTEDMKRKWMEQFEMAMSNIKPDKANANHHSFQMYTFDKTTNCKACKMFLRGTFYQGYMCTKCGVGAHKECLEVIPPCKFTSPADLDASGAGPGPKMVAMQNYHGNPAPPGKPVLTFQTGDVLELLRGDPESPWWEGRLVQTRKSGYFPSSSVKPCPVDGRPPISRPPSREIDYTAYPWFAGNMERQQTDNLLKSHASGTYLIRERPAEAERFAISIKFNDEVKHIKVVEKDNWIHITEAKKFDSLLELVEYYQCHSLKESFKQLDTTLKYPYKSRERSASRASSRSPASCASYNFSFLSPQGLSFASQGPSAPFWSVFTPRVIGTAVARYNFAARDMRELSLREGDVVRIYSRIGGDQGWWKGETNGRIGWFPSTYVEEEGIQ
Chain of UniProt Q14135 (Q14135 whole entry): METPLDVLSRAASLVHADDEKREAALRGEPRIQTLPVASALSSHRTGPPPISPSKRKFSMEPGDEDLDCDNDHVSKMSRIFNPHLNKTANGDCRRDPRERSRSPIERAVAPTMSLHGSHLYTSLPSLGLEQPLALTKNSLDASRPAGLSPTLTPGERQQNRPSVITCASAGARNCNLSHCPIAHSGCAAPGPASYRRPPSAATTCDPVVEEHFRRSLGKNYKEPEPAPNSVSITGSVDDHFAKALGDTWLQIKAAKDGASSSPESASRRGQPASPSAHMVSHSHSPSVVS
Chain of UniProt Q8TEY7 (Q8TEY7 whole entry): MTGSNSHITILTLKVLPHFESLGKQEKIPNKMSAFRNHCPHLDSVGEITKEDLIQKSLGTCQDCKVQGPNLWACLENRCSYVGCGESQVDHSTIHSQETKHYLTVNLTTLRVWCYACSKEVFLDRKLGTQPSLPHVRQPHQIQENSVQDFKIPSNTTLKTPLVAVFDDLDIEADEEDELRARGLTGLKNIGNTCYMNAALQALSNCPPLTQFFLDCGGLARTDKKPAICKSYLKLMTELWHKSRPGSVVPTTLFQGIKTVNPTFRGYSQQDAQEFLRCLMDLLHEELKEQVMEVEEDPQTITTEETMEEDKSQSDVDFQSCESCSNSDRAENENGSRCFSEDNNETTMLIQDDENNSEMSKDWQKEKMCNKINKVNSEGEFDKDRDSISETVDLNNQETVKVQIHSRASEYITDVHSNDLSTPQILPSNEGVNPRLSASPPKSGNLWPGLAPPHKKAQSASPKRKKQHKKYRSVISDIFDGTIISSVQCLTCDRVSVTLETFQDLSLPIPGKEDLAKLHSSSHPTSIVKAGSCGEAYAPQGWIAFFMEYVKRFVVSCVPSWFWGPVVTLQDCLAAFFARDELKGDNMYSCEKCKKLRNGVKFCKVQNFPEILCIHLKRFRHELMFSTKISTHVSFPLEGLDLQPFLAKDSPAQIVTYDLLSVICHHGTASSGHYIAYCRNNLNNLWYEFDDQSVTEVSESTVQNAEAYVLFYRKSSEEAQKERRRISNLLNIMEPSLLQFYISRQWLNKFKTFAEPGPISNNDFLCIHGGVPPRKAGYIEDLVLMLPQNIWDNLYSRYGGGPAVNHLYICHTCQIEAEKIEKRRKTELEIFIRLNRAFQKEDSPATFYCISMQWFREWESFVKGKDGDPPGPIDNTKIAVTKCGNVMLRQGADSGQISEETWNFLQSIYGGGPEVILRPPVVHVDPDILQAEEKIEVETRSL
Chain of UniProt O60763 (O60763 whole entry): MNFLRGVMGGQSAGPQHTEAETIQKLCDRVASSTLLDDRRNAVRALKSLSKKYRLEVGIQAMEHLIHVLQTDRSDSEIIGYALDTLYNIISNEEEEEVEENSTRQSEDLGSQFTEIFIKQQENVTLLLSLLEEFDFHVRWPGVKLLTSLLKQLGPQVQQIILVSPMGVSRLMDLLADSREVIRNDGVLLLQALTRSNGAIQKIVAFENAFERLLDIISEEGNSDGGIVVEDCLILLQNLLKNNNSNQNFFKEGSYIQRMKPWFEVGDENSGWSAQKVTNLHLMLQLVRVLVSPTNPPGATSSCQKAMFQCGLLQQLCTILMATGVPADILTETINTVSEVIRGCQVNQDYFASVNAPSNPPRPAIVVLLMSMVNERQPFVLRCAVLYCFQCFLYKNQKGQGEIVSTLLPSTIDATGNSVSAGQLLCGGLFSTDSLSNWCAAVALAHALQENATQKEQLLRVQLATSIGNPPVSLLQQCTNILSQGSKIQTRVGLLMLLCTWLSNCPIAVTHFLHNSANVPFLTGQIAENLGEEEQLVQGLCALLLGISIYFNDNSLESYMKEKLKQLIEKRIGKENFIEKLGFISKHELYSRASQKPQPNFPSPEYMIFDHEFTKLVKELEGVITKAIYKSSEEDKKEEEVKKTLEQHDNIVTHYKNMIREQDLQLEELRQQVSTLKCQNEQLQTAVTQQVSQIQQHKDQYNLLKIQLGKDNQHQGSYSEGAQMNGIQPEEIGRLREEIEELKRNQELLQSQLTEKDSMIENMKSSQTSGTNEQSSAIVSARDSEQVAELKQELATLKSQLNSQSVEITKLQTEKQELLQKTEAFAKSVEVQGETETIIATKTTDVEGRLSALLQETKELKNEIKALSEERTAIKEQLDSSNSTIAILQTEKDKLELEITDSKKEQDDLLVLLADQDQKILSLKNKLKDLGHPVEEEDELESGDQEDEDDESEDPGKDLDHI
Chain of UniProt Q9BVJ6 (Q9BVJ6 whole entry): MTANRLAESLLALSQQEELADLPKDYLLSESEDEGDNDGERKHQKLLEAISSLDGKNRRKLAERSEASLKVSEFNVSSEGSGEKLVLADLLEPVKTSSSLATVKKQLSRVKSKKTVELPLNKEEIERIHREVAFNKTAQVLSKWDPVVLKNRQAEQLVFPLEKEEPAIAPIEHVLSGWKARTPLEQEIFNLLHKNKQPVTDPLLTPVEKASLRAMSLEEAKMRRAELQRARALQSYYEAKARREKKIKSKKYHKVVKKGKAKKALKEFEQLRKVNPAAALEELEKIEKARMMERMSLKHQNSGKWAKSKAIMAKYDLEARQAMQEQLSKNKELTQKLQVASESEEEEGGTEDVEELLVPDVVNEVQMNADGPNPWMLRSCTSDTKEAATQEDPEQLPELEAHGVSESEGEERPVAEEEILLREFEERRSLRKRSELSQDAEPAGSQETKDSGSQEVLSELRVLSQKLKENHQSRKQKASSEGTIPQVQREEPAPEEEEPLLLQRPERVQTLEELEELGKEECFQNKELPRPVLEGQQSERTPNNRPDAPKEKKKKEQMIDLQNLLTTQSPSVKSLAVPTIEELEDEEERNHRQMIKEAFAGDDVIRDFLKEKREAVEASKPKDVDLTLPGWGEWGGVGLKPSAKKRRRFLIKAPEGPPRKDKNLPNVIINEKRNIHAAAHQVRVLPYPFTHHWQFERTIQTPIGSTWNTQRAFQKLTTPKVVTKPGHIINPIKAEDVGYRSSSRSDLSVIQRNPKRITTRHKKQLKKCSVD
Chain of UniProt Q99536 (Q99536 whole entry): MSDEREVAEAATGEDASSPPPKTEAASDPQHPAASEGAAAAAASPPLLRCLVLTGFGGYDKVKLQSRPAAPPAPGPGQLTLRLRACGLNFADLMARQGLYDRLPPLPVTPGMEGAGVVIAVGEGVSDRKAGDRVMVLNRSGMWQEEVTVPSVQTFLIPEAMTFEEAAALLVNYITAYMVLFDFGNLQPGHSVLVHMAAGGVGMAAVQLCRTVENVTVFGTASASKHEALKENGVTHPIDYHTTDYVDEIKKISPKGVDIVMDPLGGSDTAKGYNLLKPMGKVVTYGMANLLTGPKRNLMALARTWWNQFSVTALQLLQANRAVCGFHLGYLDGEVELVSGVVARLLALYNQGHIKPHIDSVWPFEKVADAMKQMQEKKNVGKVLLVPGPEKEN
Chain of UniProt O94782 (O94782 whole entry): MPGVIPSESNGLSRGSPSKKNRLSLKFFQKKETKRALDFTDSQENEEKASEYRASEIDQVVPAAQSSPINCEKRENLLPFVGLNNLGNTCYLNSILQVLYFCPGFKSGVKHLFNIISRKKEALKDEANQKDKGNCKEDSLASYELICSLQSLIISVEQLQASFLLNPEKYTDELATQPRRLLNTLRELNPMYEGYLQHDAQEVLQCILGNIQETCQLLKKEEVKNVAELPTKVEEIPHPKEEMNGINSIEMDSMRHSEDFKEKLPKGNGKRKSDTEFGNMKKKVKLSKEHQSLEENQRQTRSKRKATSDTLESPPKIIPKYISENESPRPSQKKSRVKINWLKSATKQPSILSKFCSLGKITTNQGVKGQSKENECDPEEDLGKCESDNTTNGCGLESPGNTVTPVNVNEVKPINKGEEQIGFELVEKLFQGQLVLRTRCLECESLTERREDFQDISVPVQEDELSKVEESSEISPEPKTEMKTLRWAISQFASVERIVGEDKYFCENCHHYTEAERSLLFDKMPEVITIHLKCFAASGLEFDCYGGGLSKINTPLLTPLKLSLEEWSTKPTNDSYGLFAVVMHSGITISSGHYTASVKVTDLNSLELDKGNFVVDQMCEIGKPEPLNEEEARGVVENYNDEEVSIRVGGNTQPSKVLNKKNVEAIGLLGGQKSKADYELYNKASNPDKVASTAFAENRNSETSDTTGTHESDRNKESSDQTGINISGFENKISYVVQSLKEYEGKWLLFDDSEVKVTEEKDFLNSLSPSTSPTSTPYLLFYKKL

Target	thermal stability z-score (lipoamide; [1])	thermal stability z-score (lipoamide; arsenate co-treatment: none)	thermal stability z-score (potassium arsenate)
USF1 (UniProt P22415)	0.0459	-0.169	0.149
USMG5 (UniProt Q96IX5)	1.21	0.486	0.215
USO1 (UniProt O60763)	0.293	0.095	0.146
USP1 (UniProt O94782)	-0.779	-0.444	-0.221
USP3 (UniProt Q9Y6I4)	0.0204	0.0221	-2.27
USP4 (UniProt Q13107)	-0.209	-0.11	-0.141
USP5 (UniProt P45974)	0.0243	0.351	0.0981
USP6NL (UniProt Q92738)	0.194	-0.0598	0.0467
USP7 (UniProt Q93009)	0.299	0.123	-0.483
USP8 (UniProt P40818)	-0.401	-0.0464	0.561
USP9X (UniProt Q93008)	-0.133	-0.258	0.115
USP10 (UniProt Q14694)	0.103	0.045	-0.241
USP11 (UniProt P51784)	-0.0801	-0.162	0.143
USP13 (UniProt Q92995)	0.464	0.0604	-0.0408
USP14 (UniProt P54578)	0.406	-0.143	-0.0718
USP15 (UniProt Q9Y4E8)	0.00184	-0.0791	0.014
USP16 (UniProt Q9Y5T5)	-0.544	-0.649	0.229
USP19 (UniProt O94966)	0.774	-0.193	-0.0515
USP22 (UniProt Q9UPT9)	-0.374	0.131	0.237
USP24 (UniProt Q9UPU5)	-0.197	-0.413	-0.117
USP25 (UniProt Q9UHP3)	-0.18	-0.113	0.667
USP28 (UniProt Q96RU2)	-0.088	-0.175	-0.158
USP32 (UniProt Q8NFA0)	-0.102	-0.19	-0.0527
USP33 (UniProt Q8TEY7)	-0.155	-0.011	1.21

Target	thermal stability z-score (lipoamide; [1])	thermal stability z-score (lipoamide; arsenate co-treatment: none)	thermal stability z-score (potassium arsenate)
USP34 (UniProt Q70CQ2)	0.544	0.668	-0.384
USP36 (UniProt Q9P275)	0.216	-0.0229	-0.265
USP39 (UniProt Q53GS9)	-0.384	-0.174	-0.489
USP47 (UniProt Q96K76)	-0.439	-0.436	0.244
USP48 (UniProt Q86UV5)	-0.179	-0.137	-0.669
UTP3 (UniProt Q9NQZ2)	0.145	0.194	0.203
UTP4 (UniProt Q969X6)	0.167	0.0645	0.0306
UTP6 (UniProt Q9NYH9)	0.13	-0.00953	0.272
UTP14A (UniProt Q9BVJ6)	1.62	0.823	2.11
UTP15 (UniProt Q8TED0)	0.625	0.147	0.528
UTP18 (UniProt Q9Y5J1)	0.058	-0.244	0.516
UTP20 (UniProt O75691)	-0.113	-0.168	-0.134
UTRN (UniProt P46939)	0.452	-0.0132	-0.495
UVRAG (UniProt Q9P2Y5)	-0.0868	-0.247	-0.352
UXS1 (UniProt Q8NBZ7)	0.238	0.551	0.198
UXT (UniProt Q9UBK9)	0.497	0.378	0.352
UniProt E7ENQ6	-0.462	-0.272	0.151
UniProt E7EQ34|GOSR2	-0.785	-0.401	-0.878
UniProt E9PSI1	-0.0572	-0.622	-0.346
UniProt F5GYJ5	0.464	0.437	0.166
UniProt F5H5P2|BCKDHA	-0.168	-0.738	0.969
UniProt F8W031	-3.73	-2.58	0.325
UniProt G3V599	-0.297	-0.663	0.593
UniProt H0YIV9|GATC	-0.219	-0.277	-0.0937

Target	thermal stability z-score (lipoamide; [1])	thermal stability z-score (lipoamide; arsenate co-treatment: none)	thermal stability z-score (potassium arsenate)
VAC14 (UniProt Q08AM6)	-0.483	-0.0923	-0.61
VAMP4 (UniProt O75379)	1.45	1.92	0.236
VAMP7 (UniProt P51809)	-0.512	-0.444	-0.234
VAMP8 (UniProt Q9BV40)	1.3	1.28	0.587
VANGL1 (UniProt Q8TAA9)	0.696	0.817	-0.242
VAPA (UniProt Q9P0L0)	0.25	-0.0574	-1.14
VAPB (UniProt O95292)	-0.055	0.415	-0.178
VARS2 (UniProt Q5ST30)	-0.824	-0.273	0.279
VARS (UniProt P26640)	0.0159	-0.0112	0.373
VASP (UniProt P50552)	0.564	0.923	-0.33
VAT1 (UniProt Q99536)	0.819	0.762	1.37
VAV2 (UniProt P52735)	0.0635	0.172	0.835
VBP1 (UniProt P61758)	-0.615	-0.366	-0.72
VCL (UniProt P18206)	-0.353	-0.286	-2.02
VCP (UniProt P55072)	0.257	0.118	-0.172
VCPIP1 (UniProt Q96JH7)	-0.216	-0.156	-0.233
VDAC1 (UniProt P21796)	0.311	0.385	0.905
VDAC2 (UniProt P45880)	0.262	0.307	1.58
VDAC3 (UniProt Q9Y277)	0.0571	0.18	0.848
VEZT (UniProt Q9HBM0)	-0.758	-0.707	-0.349
VGLL4 (UniProt Q14135)	-0.0828	0.229	-1.46
VIM (UniProt P08670)	1.82	1.15	0.432
VIMP (UniProt Q9BQE4)	0.458	0.457	-0.948
VIPAS39 (UniProt Q9H9C1)	-0.0571	0.338	0.358
